From patent publication US20210395226A1, “SUBSTITUTED ARYL COMPOUND AND PREPARATION METHOD THEREFOR AND USE THEREOF” (SICHUAN KELUN-BIOTECH BIOPHARMACEUTICAL CO., LTD., priority 2018, published 2021) come the findings set out here.

A short description of data set [1]: Pharmacokinetics (PK) and distribution in brain tissue in rats. Type of data set: in vivo, male SD rats. On the procedure: Test Example 3: Study on Pharmacokinetics (PK) and Distribution in Brain Tissue in Rats
The compounds of the present application were administered to male SD rats by intravenous (IV) and intragastric (PO) respectively to investigate the pharmacokinetic characteristics. The dosages of IV and PO were 1 mg/kg and 5 mg/kg, respectively. The solvent for IV was a mixture of 5% DMSO, 5% Solutol (polyethylene glycol 15-hydroxystearate) and 90% saline, and the solvent for PO was 0.5% MC (methyl cellulose sodium). Before IV administration (0 h) and at 0.083 h, 0.25 h, 0.5 h, 1 h, 2 h, 4 h, 6 h, 8 h and 24 h time points after administration, blood samples were collected; before PO administration (0 h) and at 0.25 h, 0.5 h, 1 h, 2 h, 4 h, 6 h, 8 h and 24 h time points after administration, blood samples were collected; the blood samples were anticoagulated with EDTA.K2, and centrifuged to obtain plasma samples. For Compound 11, brain tissue samples were taken and homogenized at 0.25 h, 0.5 h, 1 h, 4 h and 8 h; for Compounds 19 and 32, and brain tissue samples were taken and homogenized at 0.25 h, 0.5 h, 1 h and 8 h (three SD rats were selected for the experiment of distribution in brain tissue at each time point), and the resulting brain tissue homogenate samples were stored at −80° C. The plasma samples and brain tissue homogenate samples were subjected to precipitation of protein, and then LC-MS/MS analysis was performed.
Pharmacokinetic parameters were calculated by means of non-compartmental model by using WinNonlin 6.3 software.

Data set [2] deals with T1, Adenosine A2a receptor (human) membrane (Homo sapiens, UniProt P29274).
T1 construct: purchased PerkinElmer RBHA2AM400UA
T1 sequence (P29274 whole entry): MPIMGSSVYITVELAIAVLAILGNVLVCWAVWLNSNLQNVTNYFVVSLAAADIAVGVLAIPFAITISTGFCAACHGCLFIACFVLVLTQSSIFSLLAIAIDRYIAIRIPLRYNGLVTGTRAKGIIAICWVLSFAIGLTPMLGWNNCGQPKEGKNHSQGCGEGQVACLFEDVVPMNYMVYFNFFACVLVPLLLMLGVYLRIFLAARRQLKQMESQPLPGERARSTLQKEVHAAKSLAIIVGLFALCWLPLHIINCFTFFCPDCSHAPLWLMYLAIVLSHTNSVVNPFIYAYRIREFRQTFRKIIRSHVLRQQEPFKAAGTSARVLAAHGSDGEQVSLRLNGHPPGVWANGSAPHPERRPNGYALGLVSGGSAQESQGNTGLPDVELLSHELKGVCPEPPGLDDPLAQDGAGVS
In words: Determination of competitive inhibition constant (Ki) for adenosine A2a receptor, [3H]-CGS-21680 radioligand. The format is binding. The settings on record: for pKi: human A2a receptor membrane, 6.0 nM [3H]-CGS-21680, read-out: Ki(A2a); for Ki(A1)/Ki(A2a): selectivity ratio A1 over A2a. Here is the method:
(§1) Test Example 1: Determination of Competitive Inhibition Constant (Ki) for Adenosine A1 and A2a Receptors
Adenosine A2a receptor (human) membrane (PerkinElmer, RBHA2AM400UA),
assay buffer for A2a (50 mM Tris-HCl, 10 mM MgCl2, 1 mM EDTA, pH7.4), used to dilute adenosine A2a receptor (human) membrane (human origin) and [^3H]-CGS-21680; and
wash buffer for A2a (50 mM Tris-HCl, 154 mM NaCl, pH7.4).
(§2) Adenosine A1 receptor membrane was diluted to 0.025 μg/μl with assay buffer for A1, and Adenosine A2a receptor membrane was diluted to 0.05 μg/μl with assay buffer for A2a, so as to obtain Adenosine A1 receptor membrane dilution and Adenosine A2a receptor membrane dilution.
(§3) The compound to be tested and CGS-15943 were diluted with DMSO, and 1 W of the compound to be tested, high value control (0.5% DMSO), low value control (1000 nM CGS-15943) were added to a 96-well plate, and 100 W of Adenosine A1 receptor membrane dilution (containing 2.5 μg of membrane) was added to each well of the 96-well plate to obtain A1 detection plate; following the same steps, 100 W of Adenosine A2a receptor membrane dilution (containing 5.0 μg membrane) was added to each well of the 96-well plate to obtain A2a detection plate.
(§4) To the A1 detection plate, 100 μl of radioisotope-labeled ligand [^3H]-DPCPX (diluted with assay buffer for A1, working concentration of which was 1.0 nM) was added; and to the A2a detection plate, 100 μl of radioisotope-labeled ligand [^3H]-CGS-21680 (diluted with assay buffer for A2a, working concentration of which was 6.0 nM) was added. The A1 and A2a detection plates were sealed with tape, and incubated at room temperature for 1 h and 2 h, respectively.
(§5) Unifilter-96 GF/C filter plates were prepared, 50 μl of 0.3% PEI was added to each well of the Unifilter-96 GF/C filter plates, and the resulting filter plates were incubated at room temperature for not less than 0.5 h.
(§6) After the incubation was completed, the reaction solution was transferred from the A1 detection plate and the A2a detection plate to two Unifilter-96 GF/C filter plates, and washed with pre-cooled wash buffer for A1 and wash buffer for A2a, and then the filter plates were dried, sealed at bottom, then 50 W of Microscint 20 fluid scintillation cocktail was added, and then the filter plates were sealed at top, and counted by MicroBeta2 Reader.
(§7) Inhibition rate %=100−(signal value of test well−signal average value of low value control)/(signal average value of high value control−signal average value of low value control)*100.
(§8) EXCEL XLfit was used to fit IC50.
(§9) The calculation formula for competitive inhibition constant (Ki) was: Ki=IC50/(1+concentration of isotope-labeled ligand/Kd), wherein Kd was the dissociation constant of the isotope-labeled ligand.

Data set [3] concerns the target T2, Adenosine A1 receptor (human) membrane (Homo sapiens, UniProt P30542).
T2 construct: purchased PerkinElmer ES-010-M400UA
T2 sequence (P30542 1-326): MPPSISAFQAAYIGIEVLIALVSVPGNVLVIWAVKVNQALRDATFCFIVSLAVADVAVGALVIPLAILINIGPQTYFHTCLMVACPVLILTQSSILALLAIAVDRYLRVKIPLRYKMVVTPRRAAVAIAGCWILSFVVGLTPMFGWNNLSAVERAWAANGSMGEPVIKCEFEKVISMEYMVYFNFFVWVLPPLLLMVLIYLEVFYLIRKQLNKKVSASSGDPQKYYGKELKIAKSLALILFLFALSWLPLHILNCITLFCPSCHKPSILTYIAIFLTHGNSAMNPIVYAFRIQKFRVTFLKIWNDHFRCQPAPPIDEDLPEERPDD
The experiment in a line: Determination of competitive inhibition constant (Ki) for adenosine A1 receptor, [3H]-DPCPX radioligand. Type of data set: binding. The settings on record: 1.0 nM [3H]-DPCPX. On the procedure: as §1
[^3H]-DPCPX (PerkinElmer, NET974250UC),
Adenosine A1 receptor (human) membrane (PerkinElmer, ES-010-M400UA),
assay buffer for A1 (25 mM HEPES, 5 mM MgCl2, 1 mM CaCl2, 100 mM NaCl, pH7.4), used to dilute adenosine A1 receptor (human) membrane and [^3H]-DPCPX;
wash buffer for A1 (25 mM HEPES, 5 mM MgCl2, 1 mM CaCl2, 100 mM NaCl, pH7.4);
as §2, §3, §4, §5, §6, §7, §8, §9

The target of a further data set is T3, ADORA2a/CHOK1 cells (Homo sapiens, UniProt P29274).
T3 construct: host or cells: CHO-K1
T3 sequence (P29274 whole entry): as the sequence (P29274 whole entry) above
The experiment in a line: Inhibitory activity for ADORA2a/CHOK1 cells (cAMP detection, adenosine as agonist). The format is cell-based. The settings on record: for inhibition at 0.1 µM: CHO-K1, 100 nM compound, read-out: Inhibition rate at 100 nM; for inhibition at 1 µM: CHO-K1, 1000 nM compound, read-out: Inhibition rate at 1000 nM. Here is the method: Test Example 2: Study on Inhibitory Activity for ADORA2a/CHOK1 Cells
ADORA2a/CHOK1 cells (Cobai, CBP71017).
FBS was added to Ham's F-12 medium to a concentration of 10% (v/v), Zeocin was added to a final concentration of 200 μg/mL, and Hygromycin B was added to a final concentration of 100 μg/mL, and the resulting mixture was stored at 4° C. for later use.
A certain amount of adenosine was precisely weighed and placed into a 1.5 mL EP tube, then a certain volume of cell culture medium was added, the resulting mixture was incubated at 37° C. for dissolution, thereby a 10 mM stock solution was prepared. The stock solution was diluted with cell culture medium at 1:1000 to get 10 μM adenosine solution.
The compound to be tested was dissolved in DMSO to form a 10 mM stock solution, and the stock solution was stored in a refrigerator at 4° C. for later use. The stock solution was diluted with the 10 μM of adenosine solution to 2000 nM or 200 nM for later test.
(1) CHO-K1 cells stably expressing ADORA2A receptor were cultured in a 37° C., 5% CO2 cell incubator. When the cell confluence reached about 80%, the cells were digested by trypsin, dispersed and counted; (2) the cell concentration was adjusted to 6×10^5 cells/mL according to the counting results; (3) the cells was inoculated into a white 384-well cell culture plate at 5 μL per well (about 3000 cells/well).
All groups were provided with multiple wells, the adenosine-free cell culture medium was added to the wells of the Blank group (5 μL/well); 10 μM adenosine solution was added to the wells of the Agonist group (5 μL/well); the diluted compound was added to the wells of the test compound group (5 μL/well). After the addition of the compound was completed, the 384-well plate was centrifuged at 2500 rpm for 30 seconds to fully mix the compound and the medium, then placed in a 25° C. incubator and incubated for 30 min.
A certain volume of cAMP-d2 was taken, and diluted by adding Lysis & Detection Buffer at the ratio of 1:5 to prepare Solution A.
A certain volume of cAMP-Cryptate was taken, and diluted by adding Lysis & Detection Buffer at the ratio of 1:5 to prepare Solution B.
(2) After 30 min of incubation in step 2 was completed, addition of detection solution was carried out. The 384-well plate was taken out, 5 μL of Solution A was added to each well, and then 5 μL of Solution B was added to each well, then the 384-well plate was covered with sealing membrane, centrifuged at 2500 rpm for 30 s (to fully mix the detection solution and medium), and incubated in a thermostat at 25° C. for 1 h.
After the incubation, the 384-well plate was taken out, and detected by PHERA Star FS to read data, detection wavelength: 620 nm/665 nm.
inhibition rate %=(1−(RCompound−RBlank)/(RAgonist−RBlank))*100%
wherein, RCompound represented the R Value of the test compound group, RAgonist represented the R value of the Agonist group, and RBlank represented the R value of the Blank group.

pKi: −log10 of the molar value. Like-named read-outs stand apart in the source and are kept apart here.

As for `Cc1ncnc2ccc(-c3cc(F)c(NC(=O)N4CCOCC4)nc3-c3ccc(F)cc3)cc12` [Compound 32, N-(3-fluoro-6-(4-fluorophenyl)-5-(4-methylquinazolin-6-yl)pyridin-2-yl) morpholine-4-carboxamide], the bioavailability (usually dose-corrected exposure relative to a reference, in per cent) in data set [1] (male, SD, plasma, rat, oral 5 mg/kg compared with intravenous 1 mg/kg) stood at 80.2%. For the same molecule, in data set [1] (male, SD, rat plasma, IV, 1 mg/kg), the Cmax (in general, the peak of the concentration-time curve) was determined as 1.48 µg/mL. The AUC(0-t) in data set [1] (male, SD, rat plasma, IV, 1 mg/kg, read-out: AUClast) was 1.82 µg·h/mL; in data set [1] (male, SD, rat plasma, PO, 5 mg/kg, read-out: AUClast (plasma)) it was 7.31 µg·h/mL. The “AUClast (brain)” value in data set [1] (rat brain tissue, PO, 5 mg/kg) was 52.9 ng·h/g. The “Plasma AUClast/brain AUClast” value in data set [1] (rat, PO, 5 mg/kg) is on record as 138/1. Also, the pKi (as a rule, the negative decadic logarithm of the Ki, by convention in mol/L) in data set [2] is 8.02; in data set [3] it was 6.27. Moreover, the “Ki(A1)/Ki(A2a)” value in data set [2] is on record as 56.2.

On to `Cc1ncnc2ccc(-c3c(C#N)cc(NC(=O)N4CCOCC4)nc3-c3ccc(F)cc3)cc12` [Compound 43, N-(4-cyano-6-(4-fluorophenyl)-5-(4-methylquinazolin-6-yl)pyridin-2-yl) morpholine-4-carboxamide], for which, in data set [2], the pKi was 8.87 and the “Ki(A1)/Ki(A2a)” value worked out at 98.3. In addition, on ADORA2a/CHOK1 cells, the inhibition – broadly, the relative decrease from the control value, in per cent – at 0.1 µM came out at 59.1% and the inhibition at 1 µM came out at 100%. For the same molecule, in data set [3], the pKi was 6.87.

With `Cc1ncnc2ccc(-c3c(-c4ccc(F)cc4)nc(NC(=O)N4CCOCC4)nc3C3CC3)cc12` [Compound 44, N-(4-cyclopropyl-6-(4-fluorophenyl)-5-(4-methylquinazolin-6-yl)pyrimidin-2-yl)morpholine-4-carboxamide], in data set [2], the pKi is 7.84 and the “Ki(A1)/Ki(A2a)” value came out at 64.2. Moreover, at ADORA2a/CHOK1 cells, the inhibition at 0.1 µM is 64.8% and the inhibition at 1 µM amounted to 104%. For the same molecule, the pKi in data set [3] was 6.03.
